Experiments:
[1] = biological target: human AChE (hAChE; EC 3.1.1.7) (Homo sapiens, UniProt P22303); test: biochemical; conditions: for IC50: mean of at least three experiments, read-out: IC50 hAChE ± STD; for SI (hBChE/hAChE): ratio IC50(hBChE)/IC50(hAChE)
Method: (§1) For that purpose, Ellman’s colorimetric assay was used[35].
(§2) The catalytic activity of both cholinesterases was determined by standard Ellman’s method adapted for 96-well plates. All tested inhibitors were freshly prepared in 50% DMSO/50% methanol at 10 mM concentration as stock solutions and then diluted in 0.1 M phosphate buffer, pH 7.4. […] The mixture was pre-incubated at 37 °C for 15 min and subsequently substrate (acetylthiocholine iodide or butyrylthiocholine iodide) was added to the final concentration of 1000 μM. The final volume of the reaction was 100 μL. The catalytic activity was evaluated as the amount of product (%) formed by enzyme after 10 min of incubation at 37 °C. The IC50 values from three independent experiments for each inhibitor concentration in triplicate were calculated using non-linear regression curve analysis in Prism version 7 Software (GraphPad Software Inc., San Diego, CA).

[2] = biological target: human butyrylcholinesterase (hBChE; EC 3.1.1.8) (Homo sapiens, UniProt P06276); test: biochemical; conditions: mean of at least three experiments; read-out: IC50 hBChE ± STD
Sequence of human butyrylcholinesterase (hBChE; EC 3.1.1.8) (P06276 29-602): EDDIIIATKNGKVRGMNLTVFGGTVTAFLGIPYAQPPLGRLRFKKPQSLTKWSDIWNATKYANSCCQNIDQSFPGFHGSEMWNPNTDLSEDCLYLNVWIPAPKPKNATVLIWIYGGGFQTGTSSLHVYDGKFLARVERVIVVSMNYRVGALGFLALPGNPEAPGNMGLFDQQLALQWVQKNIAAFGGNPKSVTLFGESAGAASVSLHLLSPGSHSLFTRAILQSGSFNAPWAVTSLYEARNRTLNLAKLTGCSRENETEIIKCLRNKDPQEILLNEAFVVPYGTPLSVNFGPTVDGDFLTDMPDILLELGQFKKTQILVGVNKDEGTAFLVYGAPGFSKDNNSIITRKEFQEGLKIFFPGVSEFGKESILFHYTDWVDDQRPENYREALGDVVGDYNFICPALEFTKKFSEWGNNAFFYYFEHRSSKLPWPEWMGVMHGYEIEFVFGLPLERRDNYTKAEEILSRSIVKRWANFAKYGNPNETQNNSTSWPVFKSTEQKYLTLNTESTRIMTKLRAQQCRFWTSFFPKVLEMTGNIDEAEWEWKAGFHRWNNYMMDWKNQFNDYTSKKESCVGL
Method: as §1, §2

hMAO-A = biological target: T1, hMAO-A (Homo sapiens, UniProt P21397); test: hMAO-A inhibition, kynuramine substrate, HPLC-MS; type: biochemical; conditions: residual enzyme activity; for % of MAO-A activity (1 µM): compound at 1 µM; for % of MAO-A activity (10 µM): compound at 10 µM
T1 construct: purchased Sigma-Aldrich (St. Louis, MO, USA)
T1 sequence (P21397 1-527): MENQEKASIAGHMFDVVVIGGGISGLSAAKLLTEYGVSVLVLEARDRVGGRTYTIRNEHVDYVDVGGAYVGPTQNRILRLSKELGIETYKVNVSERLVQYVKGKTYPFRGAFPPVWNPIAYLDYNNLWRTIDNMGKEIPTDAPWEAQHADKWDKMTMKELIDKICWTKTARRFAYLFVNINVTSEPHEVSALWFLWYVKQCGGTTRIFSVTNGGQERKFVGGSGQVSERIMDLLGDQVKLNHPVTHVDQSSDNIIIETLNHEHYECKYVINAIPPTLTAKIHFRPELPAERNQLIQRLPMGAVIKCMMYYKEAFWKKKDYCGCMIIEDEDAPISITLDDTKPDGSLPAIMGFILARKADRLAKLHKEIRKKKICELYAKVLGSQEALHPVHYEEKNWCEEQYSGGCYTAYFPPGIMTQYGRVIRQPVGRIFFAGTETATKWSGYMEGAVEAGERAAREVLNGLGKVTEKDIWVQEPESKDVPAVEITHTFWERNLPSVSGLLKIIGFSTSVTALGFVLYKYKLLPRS
Method: (§3) The hMAO-A and hMAO-B enzymes were purchased from Sigma-Aldrich (St. Louis, MO, USA). […] The mixture was pre-incubated at 37 °C for 5 min and subsequently substrate kynuramine was added to the final concentration of 60 µM in the case of hMAO-A and 30 µM in the case of hMAO-B. The final volume of reaction mixture was 0.1 mL. The whole reaction mixture was incubated at 37 °C for 30 min. The reaction was stopped by the addition of 200 µL acetonitrile/methanol mixture (ratio 1:1) and cooling down to 0 °C. […] Eluents: (A) 0.1% formic acid in water; (B) 0.1% formic acid in acetonitrile.

hMAO-B = biological target: T2, hMAO-B (Homo sapiens, UniProt P27338); test: biochemical; conditions: residual enzyme activity; for % of MAO-B activity (1 µM): compound at 1 µM; for % of MAO-B activity (10 µM): compound at 10 µM
T2 construct: purchased Sigma-Aldrich (St. Louis, MO, USA)
T2 sequence (P27338 1-520): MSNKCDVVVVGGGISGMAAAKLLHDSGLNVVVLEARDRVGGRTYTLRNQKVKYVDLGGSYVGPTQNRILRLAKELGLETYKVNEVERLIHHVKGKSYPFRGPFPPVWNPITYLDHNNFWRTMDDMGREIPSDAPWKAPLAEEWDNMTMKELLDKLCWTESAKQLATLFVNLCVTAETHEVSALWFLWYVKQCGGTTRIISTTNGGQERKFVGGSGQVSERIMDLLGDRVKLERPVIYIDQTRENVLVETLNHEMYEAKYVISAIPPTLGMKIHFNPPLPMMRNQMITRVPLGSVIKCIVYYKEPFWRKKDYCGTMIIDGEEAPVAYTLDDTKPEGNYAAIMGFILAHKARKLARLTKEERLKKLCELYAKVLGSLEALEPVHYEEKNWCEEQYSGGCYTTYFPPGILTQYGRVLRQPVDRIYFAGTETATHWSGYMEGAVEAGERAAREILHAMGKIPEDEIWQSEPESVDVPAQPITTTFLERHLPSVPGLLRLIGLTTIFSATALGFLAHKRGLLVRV
Method: as §3

Sequence of human AChE (hAChE; EC 3.1.1.7) (P22303 32-614): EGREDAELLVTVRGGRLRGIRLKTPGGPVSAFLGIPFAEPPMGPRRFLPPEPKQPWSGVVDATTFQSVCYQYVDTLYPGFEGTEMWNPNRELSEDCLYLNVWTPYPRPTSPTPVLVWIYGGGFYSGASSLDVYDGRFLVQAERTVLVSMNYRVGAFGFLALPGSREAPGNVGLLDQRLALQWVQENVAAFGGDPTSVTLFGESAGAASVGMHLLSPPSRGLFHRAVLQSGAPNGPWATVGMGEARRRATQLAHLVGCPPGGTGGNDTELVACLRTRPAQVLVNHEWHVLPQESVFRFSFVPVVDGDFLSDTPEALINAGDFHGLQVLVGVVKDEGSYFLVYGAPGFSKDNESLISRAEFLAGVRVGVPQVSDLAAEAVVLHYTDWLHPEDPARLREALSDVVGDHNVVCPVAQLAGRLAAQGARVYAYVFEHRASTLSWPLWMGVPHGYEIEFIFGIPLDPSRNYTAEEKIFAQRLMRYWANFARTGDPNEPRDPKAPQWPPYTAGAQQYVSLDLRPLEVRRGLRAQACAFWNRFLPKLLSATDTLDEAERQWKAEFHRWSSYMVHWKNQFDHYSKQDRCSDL

C#CCN(CC#C)CCCNc1c2c(nc3cc(Cl)ccc13)CCCC2.Cl.Cl [Compound 22, N'-(6-Chloro-1,2,3,4-tetrahydroacridin-9-yl)-N,N-di(prop-2-yn-1-yl)propane-1,3-diamine dihydrochloride]
IC50 [1]: 61 ± 2 nM | SI (hBChE/hAChE) [1]: 2.79 | IC50 [2]: 170 ± 13 nM | % of MAO-A activity (1 µM) (hMAO-A): 107% | % of MAO-A activity (10 µM) (hMAO-A): 102% | % of MAO-B activity (1 µM) (hMAO-B): 87% | % of MAO-B activity (10 µM) (hMAO-B): 50%

C=CCNc1ccnc2cc(Cl)ccc12.Cl [Compound 27, 7-Chloro-N-(prop-2-en-1-yl)quinolin-4-amine hydrochloride]
IC50 [1]: 10700 ± 406 nM | SI (hBChE/hAChE) [1]: 6.18 | IC50 [2]: 66300 ± 2070 nM | % of MAO-A activity (1 µM) (hMAO-A): 54% | % of MAO-A activity (10 µM) (hMAO-A): 19% | % of MAO-B activity (1 µM) (hMAO-B): 150% | % of MAO-B activity (10 µM) (hMAO-B): 127%

C#CCN(CC#C)c1c2c(nc3cc(Cl)ccc13)CCCC2 [Compound 10]
IC50 [1]: 105 ± 4 nM | SI (hBChE/hAChE) [1]: 103.52 | IC50 [2]: 10900 ± 1020 nM | % of MAO-A activity (1 µM) (hMAO-A): 92% | % of MAO-A activity (10 µM) (hMAO-A): 92% | % of MAO-B activity (1 µM) (hMAO-B): 106% | % of MAO-B activity (10 µM) (hMAO-B): 141%

C#CCN(CC#C)c1c2c(nc3ccc(Oc4ccccc4)cc13)CCCC2.Cl [Compound 14, 7-Phenoxy-N,N-di(prop-2-yn-1-yl)-1,2,3,4-tetrahydroacridin-9-amine hydrochloride]
IC50 [1]: 2880 ± 84 nM | SI (hBChE/hAChE) [1]: 4.23 | IC50 [2]: 12200 ± 713 nM | % of MAO-A activity (1 µM) (hMAO-A): 93% | % of MAO-A activity (10 µM) (hMAO-A): 47% | % of MAO-B activity (1 µM) (hMAO-B): 73% | % of MAO-B activity (10 µM) (hMAO-B): 14%

C=CCNc1c2c(nc3ccccc13)CCCC2.Cl [Compound 2, N-(prop-2-en-1-yl)-1,2,3,4-tetrahydroacridin-9-amine hydrochloride]
IC50 [1]: 303 ± 4 nM | SI (hBChE/hAChE) [1]: 1.61 | IC50 [2]: 488 ± 19 nM | % of MAO-A activity (1 µM) (hMAO-A): 78% | % of MAO-A activity (10 µM) (hMAO-A): 58% | % of MAO-B activity (1 µM) (hMAO-B): 48% | % of MAO-B activity (10 µM) (hMAO-B): 72%

C=CCN(CC=C)c1c2c(nc3ccc(Oc4ccccc4)cc13)CCCC2.Cl [Compound 6, 7-Phenoxy-N,N-di(prop-2-en-1-yl)-1,2,3,4-tetrahydroacridin-9-amine hydrochloride]
IC50 [1]: 9540 ± 138 nM | SI (hBChE/hAChE) [1]: 1.38 | IC50 [2]: 13200 ± 408 nM | % of MAO-A activity (1 µM) (hMAO-A): 76% | % of MAO-A activity (10 µM) (hMAO-A): 78% | % of MAO-B activity (1 µM) (hMAO-B): 16% | % of MAO-B activity (10 µM) (hMAO-B): 4%

C#CCNc1ccnc2cc(Cl)ccc12.Cl [Compound 28, 7-Chloro-N-(prop-2-yn-1-yl)quinolin-4-amine hydrochloride]
IC50 [1]: 8720 ± 242 nM | % of MAO-A activity (1 µM) (hMAO-A): 39% | % of MAO-A activity (10 µM) (hMAO-A): 31% | % of MAO-B activity (1 µM) (hMAO-B): 150% | % of MAO-B activity (10 µM) (hMAO-B): 61%

C#CCN(CC#C)CCCNc1c2c(nc3ccc(OC)cc13)CCCC2.Cl.Cl [Compound 24, N-(7-Methoxy-1,2,3,4-tetrahydroacridin-9-yl)-N',N'-di(prop-2-yn-1-yl)-propane-1,3-diamine dihydrochloride]
IC50 [1]: 1950 ± 46 nM | SI (hBChE/hAChE) [1]: 0.53 | IC50 [2]: 1040 ± 60 nM | % of MAO-A activity (1 µM) (hMAO-A): 60% | % of MAO-A activity (10 µM) (hMAO-A): 70% | % of MAO-B activity (1 µM) (hMAO-B): 169% | % of MAO-B activity (10 µM) (hMAO-B): 82%

C#CCNCCCNc1c2c(nc3ccc(Oc4ccccc4)cc13)CCCC2.Cl.Cl [Compound 26, N-(7-Phenoxy-1,2,3,4-tetrahydroacridin-9-yl)-N'-(prop-2-yn-1-yl)-propane-1,3-diamine dihydrochloride]
IC50 [1]: 1040 ± 40 nM | SI (hBChE/hAChE) [1]: 1.02 | IC50 [2]: 1060 ± 62 nM | % of MAO-A activity (1 µM) (hMAO-A): 88% | % of MAO-A activity (10 µM) (hMAO-A): 79% | % of MAO-B activity (1 µM) (hMAO-B): 14% | % of MAO-B activity (10 µM) (hMAO-B): 4%

C=CCNc1c2c(nc3ccc(OC)cc13)CCCC2.Cl [Compound 5, 7-Methoxy-N-(prop-2-en-1-yl)-1,2,3,4-tetrahydroacridin-9-amine hydrochloride]
IC50 [1]: 2270 ± 62 nM | SI (hBChE/hAChE) [1]: 5.52 | IC50 [2]: 12500 ± 387 nM | % of MAO-A activity (1 µM) (hMAO-A): 97% | % of MAO-A activity (10 µM) (hMAO-A): 62% | % of MAO-B activity (1 µM) (hMAO-B): 82% | % of MAO-B activity (10 µM) (hMAO-B): 70%

C=CCN(CC=C)c1c2c(nc3ccccc13)CCCC2.Cl [Compound 1, N,N-Di(prop-2-en-1-yl)-1,2,3,4-tetrahydroacridin-9-amine hydrochloride]
IC50 [1]: 493 ± 12 nM | SI (hBChE/hAChE) [1]: 1.45 | IC50 [2]: 716 ± 35 nM | % of MAO-A activity (1 µM) (hMAO-A): 95% | % of MAO-A activity (10 µM) (hMAO-A): 85% | % of MAO-B activity (1 µM) (hMAO-B): 89% | % of MAO-B activity (10 µM) (hMAO-B): 62%

C#CCN(CC#C)c1c2c(nc3ccc(OC)cc13)CCCC2.Cl [Compound 12, 7-Methoxy-N,N-di(prop-2-yn-1-yl)-1,2,3,4-tetrahydroacridin-9-amine hydrochloride]
IC50 [1]: 5120 ± 184 nM | SI (hBChE/hAChE) [1]: 1.56 | IC50 [2]: 7970 ± 300 nM | % of MAO-A activity (1 µM) (hMAO-A): 123% | % of MAO-A activity (10 µM) (hMAO-A): 114% | % of MAO-B activity (1 µM) (hMAO-B): 63% | % of MAO-B activity (10 µM) (hMAO-B): 45%

C=CCNc1c2c(nc3cc(Cl)ccc13)CCCC2.Cl [Compound 3, 6-Chloro-N-(prop-2-en-1-yl)-1,2,3,4-tetrahydroacridin-9-amine hydrochloride]
IC50 [1]: 70 ± 1 nM | IC50 [2]: 3220 ± 129 nM | % of MAO-A activity (1 µM) (hMAO-A): 76% | % of MAO-A activity (10 µM) (hMAO-A): 73% | % of MAO-B activity (1 µM) (hMAO-B): 71% | % of MAO-B activity (10 µM) (hMAO-B): 64%

C#CCN(CC#C)c1c2c(nc3ccccc13)CCCC2.Cl [Compound 8, N,N-Di(prop-2-yn-1-yl)-1,2,3,4-tetrahydroacridin-9-amine hydrochloride]
IC50 [1]: 186 ± 5 nM | SI (hBChE/hAChE) [1]: 5.04 | IC50 [2]: 937 ± 43 nM | % of MAO-A activity (1 µM) (hMAO-A): 103% | % of MAO-A activity (10 µM) (hMAO-A): 111% | % of MAO-B activity (1 µM) (hMAO-B): 59% | % of MAO-B activity (10 µM) (hMAO-B): 47%

C=CCN(CC=C)c1c2c(nc3ccc(OC)cc13)CCCC2.Cl [Compound 4, 7-Methoxy-N,N-di(prop-2-en-1-yl)-1,2,3,4-tetrahydroacridin-9-amine hydrochloride]
IC50 [1]: 3690 ± 113 nM | SI (hBChE/hAChE) [1]: 2.37 | IC50 [2]: 8760 ± 292 nM | % of MAO-A activity (1 µM) (hMAO-A): 103% | % of MAO-A activity (10 µM) (hMAO-A): 107% | % of MAO-B activity (1 µM) (hMAO-B): 83% | % of MAO-B activity (10 µM) (hMAO-B): 61%

C#CCNc1c2c(nc3ccc(OC)cc13)CCCC2.Cl [Compound 13, 7-Methoxy-N-(prop-2-yn-1-yl)-1,2,3,4-tetrahydroacridin-9-amine hydrochloride]
IC50 [1]: 1360 ± 39 nM | SI (hBChE/hAChE) [1]: 2.75 | IC50 [2]: 3760 ± 210 nM | % of MAO-A activity (1 µM) (hMAO-A): 96% | % of MAO-A activity (10 µM) (hMAO-A): 82% | % of MAO-B activity (1 µM) (hMAO-B): 74% | % of MAO-B activity (10 µM) (hMAO-B): 62%
